Laboratory results as given in ChEMBL document CHEMBL1145873, “Acylsulfonamide-containing PTP1B inhibitors designed to mimic an enzyme-bound water of hydration” (Bioorg Med Chem Lett, 2003).

Each molecule was assayed against T1, Tyrosine-protein phosphatase non-receptor type 1 (Homo sapiens, UniProt P18031) (assay: Inhibitory concentration towards recombinant human Protein-tyrosine phosphatase 1B was determined).
T1 sequence (P18031 whole entry): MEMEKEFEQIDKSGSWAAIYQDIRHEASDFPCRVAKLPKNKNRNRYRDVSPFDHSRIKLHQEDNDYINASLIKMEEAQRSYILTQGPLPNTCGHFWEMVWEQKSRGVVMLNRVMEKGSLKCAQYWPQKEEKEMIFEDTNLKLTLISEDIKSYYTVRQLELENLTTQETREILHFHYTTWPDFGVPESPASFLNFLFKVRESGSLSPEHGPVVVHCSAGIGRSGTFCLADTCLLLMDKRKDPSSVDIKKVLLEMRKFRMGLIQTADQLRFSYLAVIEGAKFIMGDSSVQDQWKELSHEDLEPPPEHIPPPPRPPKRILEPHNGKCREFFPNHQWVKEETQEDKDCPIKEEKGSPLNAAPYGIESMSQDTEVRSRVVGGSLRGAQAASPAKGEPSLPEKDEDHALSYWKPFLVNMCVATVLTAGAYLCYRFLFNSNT

SMILES	IC50
C[C@@H]1CCC[C@H](C)N1NC(=O)c1ccc(Cl)c(S(=O)(=O)NC(=O)c2ccc3cc(C(F)(F)P(=O)(O)O)ccc3c2)c1	19 µM
O=C(NS(=O)(=O)Cc1ccccc1)c1ccc2cc(C(F)(F)P(=O)(O)O)ccc2c1	24 µM
O=C(NS(=O)(=O)c1cc(C2(O)NC(=O)c3ccccc32)ccc1Cl)c1ccc2cc(C(F)(F)P(=O)(O)O)ccc2c1 (stereo not given)	25 µM
O=C(NS(=O)(=O)c1ccccc1)c1ccc2cc(C(F)(F)P(=O)(O)O)ccc2c1	30 µM
CS(=O)(=O)NC(=O)c1ccc2cc(C(F)(F)P(=O)(O)O)ccc2c1	41 µM
CCN1CCCC1CNC(=O)c1cc(S(=O)(=O)NC(=O)c2ccc3cc(C(F)(F)P(=O)(O)O)ccc3c2)ccc1OC (stereo not given)	46 µM
CC1Cc2ccccc2N1NC(=O)c1ccc(Cl)c(S(=O)(=O)NC(=O)c2ccc3cc(C(F)(F)P(=O)(O)O)ccc3c2)c1 (stereo not given)	20 µM
CCCCCCCCCCCCCCCCOc1ccc(S(=O)(=O)NC(=O)c2ccc3cc(C(F)(F)P(=O)(O)O)ccc3c2)cc1[N+](=O)[O-]	0.35 µM
CCCCCCCCCC(=O)Nc1ccc(S(=O)(=O)NC(=O)c2ccc3cc(C(F)(F)P(=O)(O)O)ccc3c2)cc1	18 µM

What follows are molecules tested against T1, Tyrosine-protein phosphatase non-receptor type 1 (assay: Binding affinity towards recombinant human Protein-tyrosine phosphatase 1B was determined).

SMILES	Ki
CS(=O)(=O)NC(=O)c1ccc2cc(C(F)(F)P(=O)(O)O)ccc2c1	17 µM
